Converted amounts (≈) assume the structure as drawn. Like-named read-outs stand apart in the source and are kept apart here.
Legend:
[1] = tested on: B16 melanoma cells of mouse; test: Effect of indigo-plant extract and other skin-whitening ingredient on melanin production (Experiment 2); format: cell-based; design: Efficacy with 1.25% of indigo-plant extract: key: −: Not changed; ±: Slightly suppressing blackening; +: Moderately suppressing blackening; ++: Significantly suppressing blackening; +++: Completely suppressing blackening; details: for Efficacy with 1.25% of indigo-plant extract: 72 hours; for Efficacy without indigo-plant extract: cultured 72 hours; on Efficacy without indigo-plant extract: key: −: Not changed; ±: Slightly suppressing blackening; +: Moderately suppressing blackening; ++: Significantly suppressing blackening; +++: Completely suppressing blackening
Procedure: The criterion for evaluation of blackening:
The following experiment was carried out to investigate the skin-whitening effect of indigo-plant extract and other skin-whitening ingredient. After B16 melanoma cells of mouse were cultured for 24 hours, the test samples were added to the medium alone or along with 1.25% of the indigo-plant extract to give the concentrations described in Table 2, the cells were cultured for additional 72 hours. After the number of the living cells was counted, a color of the cells packed in capillary was observed. The effect was evaluated on the same criterion in Experiment 1. When the experiment was conducted using 1.25% of the indigo-plant extract, the effect was evaluated as “+”.

A. actinomycetemcomitans [2] = test: MIC to dental bacteria, agar plate dilution; format: cell-based, Actinobacillus actinomycetemcomitans; details: Aggregatibacter actinomycetemcomitans
Procedure: (§1) The following experiment was carried out to investigate the effect of indigo-plant extract on human dental bacteria. Two parts by weight of shredded whole indigo plant was added with three parts by weight of purified water and stirred at a room temperature for 10 minutes to prepare the extract. The supernatant obtained by centrifugation was autoclaved at 120° C. for 20 minutes. After autoclaved, the supernatant obtained by centrifugation was filtrated to give an indigo-plant extract (solid content of 1.41%). The minimum inhibitory concentration (hereinafter, occasionally abbreviated as “MIC”) of the extract to dental bacteria (periodontal disease bacteria and caries bacteria) was determined. Also MIC of tryptanthrin, gallic acid and caffeic acid, which are found to be contained in the indigo-plant extract to dental bacteria. The measurement of MIC was conducted by the method described below.
(§2) MIC of the indigo-plant extract, tirptanthrin, gallic acid and caffeic acid was determined according to the standard method of Japanese Society of Chemotherapy (q.v. “Saikin-Shinkin Kensa” (Second edition), issued by Japan Public Health Association, pp. 524-529 (1982)). For periodontal disease bacteria, Prophyromonas gingivalis JCM8525, JCM12257 and ATCC33277, Actinobacillus actinomycetemcomitans (hereinafter, occasionally abbreviated as “A. actinomycetemcomitans”) JCM2434 and JCM8577, Prevotella intermedia (hereinafter, occasionally abbreviated as “P. intermedia”) JCM7365, and Campylobacter rectus (hereinafter, occasionally abbreviated as “C. rectus”) JCM6301 were used. For caries bacteria, Streptococcus mutans OMZ-175, OMZ-176, OMZ-65, OMZ-61, B-13D and Ingbritt, and Streptococcus sorbrinus (hereinafter, occasionally abbreviated as “S. sorbrinus”) 6715 were used. These bacteria were anaerobically cultured in Brain Heart Infusion medium (commercialized by Difco Laboratories Inc., hereinafter abbreviated as “BHI”) at 37° C. for 48 hours for periodontal disease bacteria or for 18 to 24 hours for caries bacteria. The broth of periodontal disease bacteria and caries bacteria was diluted to give the bacteria suspensions containing 10^8 cells/ml and 10^6 cells/ml, respectively. Five μl of any one of these suspension was inoculated on BHI agar plate containing various concentration of the indigo-plant extract, tryptanthrin, gallic acid or caffeic acid and anaerobically cultured at 37° C. for 24 hours.

A. actinomycetemcomitans [3] = test: MIC to dental bacteria, agar plate dilution; format: cell-based, Actinobacillus actinomycetemcomitans; details: Aggregatibacter actinomycetemcomitans; remark: listed apart in the source
S. sobrinus = test: MIC to dental bacteria, agar plate dilution; format: cell-based, Streptococcus sorbrinus; details: Streptococcus sobrinus, read-out: Minimum Inhibitory Concentration (MIC)
Procedure: as §1
MIC of the indigo-plant extract, tirptanthrin, gallic acid and caffeic acid was determined according to the standard method of Japanese Society of Chemotherapy (q.v. “Saikin-Shinkin Kensa” (Second edition), issued by Japan Public Health Association, pp. 524-529 (1982)). For periodontal disease bacteria, Prophyromonas gingivalis JCM8525, JCM12257 and ATCC33277, Actinobacillus actinomycetemcomitans (hereinafter, occasionally abbreviated as “A. actinomycetemcomitans”) JCM2434 and JCM8577, Prevotella intermedia (hereinafter, occasionally abbreviated as “P. intermedia”) JCM7365, and Campylobacter rectus (hereinafter, occasionally abbreviated as “C. rectus”) JCM6301 were used. For caries bacteria, Streptococcus mutans OMZ-175, OMZ-176, OMZ-65, OMZ-61, B-13D and Ingbritt, and Streptococcus sorbrinus (hereinafter, occasionally abbreviated as “S. sorbrinus”) 6715 were used. These bacteria were anaerobically cultured in Brain Heart Infusion medium (commercialized by Difco Laboratories Inc., hereinafter abbreviated as “BHI”) at 37° C. for 48 hours for periodontal disease bacteria or for 18 to 24 hours for caries bacteria. […]

C. rectus = test: MIC to dental bacteria, agar plate dilution; format: cell-based; details: Campylobacter rectus, read-out: Minimum Inhibitory Concentration (MIC)
Procedure: as §1, §2

S. mutans = test: MIC to dental bacteria, agar plate dilution; format: cell-based; details: Streptococcus mutans
Procedure: as §1, §2

P. intermedia = test: MIC to dental bacteria, agar plate dilution; format: cell-based; details: Prevotella intermedia, read-out: Minimum Inhibitory Concentration (MIC)
Procedure: as §1, §2

[4] = tested on: dental bacteria (periodontal disease bacteria and caries bacteria); test: MIC to dental bacteria, summary over all strains; format: cell-based
Procedure: as §1
MIC of the indigo-plant extract, tirptanthrin, gallic acid and caffeic acid was determined according to the standard method of Japanese Society of Chemotherapy (q.v. “Saikin-Shinkin Kensa” (Second edition), issued by Japan Public Health Association, pp. 524-529 (1982)). […]

[5] = tested on: B16 melanoma cells of mouse; test: Effect of polygonaceous plant extracts on melanin production, blackening of cells (Experiment 1); format: cell-based; on Efficacy (suppression of blackening of cells): key: −: Not changed; ±: Slightly suppressing blackening; +: Moderately suppressing blackening; ++: Significantly suppressing blackening; +++: Completely suppressing blackening
Procedure: The following experiment was carried out to investigate the effect of extract of polygonaceous plants on melanin production. After 2.2×10^5 of B16 melanoma cells of mouse were cultured by conventional method for 24 hours, the medium was added with indigo-plant extract to give a concentration of 1.25% or 2.5%, then they were cultured for additional 72 hours. After the number of the living cells was counted, color of the cells packed in capillary was observed. Using a medium added with any one of the extract of Japanese knotweed, buckwheat and knotgrass prepared by the same method of Example 1 described later to give a concentration of 2.5%, or added with koji acid to give a concentration of 2.5 mM as control, the B16 melanoma cells were cultured by the same manner as using indigo-plant extract. Then the colors of the cells were observed by the same manner as using indigo-plant extract. The degree of blackening of B16 melanoma cells was evaluated by the criterion described below.

B16 melanoma cells = test: Cytotoxicity to B16 melanoma cells; format: cell-based, mouse; details: 0.5 μg/ml
[6] = content 3.0% together with 1.25% indigo-plant extract
[7] = strain JMC2434, read-out: Minimum Inhibitory Concentration (MIC)
[8] = strain JMC8577, read-out: Minimum Inhibitory Concentration (MIC)
[9] = strain JMC8525, read-out: Minimum Inhibitory Concentration (MIC)
[10] = strain JMC12257, read-out: Minimum Inhibitory Concentration (MIC)
[11] = strain JMC33277, read-out: Minimum Inhibitory Concentration (MIC)
[12] = strain B-13D, read-out: Minimum Inhibitory Concentration (MIC)
[13] = strain Ingbritt, read-out: Minimum Inhibitory Concentration (MIC)
[14] = strain OMZ-61, read-out: Minimum Inhibitory Concentration (MIC)
[15] = strain OMZ-65, read-out: Minimum Inhibitory Concentration (MIC)
[16] = strain OMZ-175, read-out: Minimum Inhibitory Concentration (MIC)
[17] = strain OMZ-176, read-out: Minimum Inhibitory Concentration (MIC)
[18] = content 0.5% together with 1.25% indigo-plant extract
[19] = content 1.0% together with 1.25% indigo-plant extract

CCCCc1ccc(O)cc1O [4-n-Butylresorcinol]
Efficacy with 1.25% of indigo-plant extract [1, 6]: +++
Efficacy without indigo-plant extract ([1]; content 3.0%): +

OC[C@H]1O[C@@H](Oc2ccc(O)cc2)[C@H](O)[C@@H](O)[C@@H]1O [Arbutin, hydroquinone-β-D-glucoside]
Efficacy with 1.25% of indigo-plant extract ([1]; content 5.0% together with 1.25% indigo-plant extract): +++
Efficacy without indigo-plant extract ([1]; content 5.0%): +

O=C(O)/C=C/c1ccc(O)c(O)c1 [Caffeic acid, caffeic acid]
MIC (A. actinomycetemcomitans [2]; [7]): 400 µg/mL (≈ 2220 µM)
MIC (A. actinomycetemcomitans [2]; [8]): 200 µg/mL (≈ 1110 µM)
MIC (A. actinomycetemcomitans [3]; [9]): 400 µg/mL (≈ 2220 µM)
MIC (A. actinomycetemcomitans [3]; [10]): 400 µg/mL (≈ 2220 µM)
MIC (A. actinomycetemcomitans [3]; [11]): 400 µg/mL (≈ 2220 µM)
MIC (S. sobrinus; strain 6715): 800 µg/mL (≈ 4440 µM)
MIC (C. rectus; strain JMC6301): 100 µg/mL (≈ 555 µM)
MIC (S. mutans; [12]): 200 µg/mL (≈ 1110 µM)
MIC (S. mutans; [13]): 1600 µg/mL (≈ 8880 µM)
MIC (S. mutans; [14]): 400 µg/mL (≈ 2220 µM)
MIC (S. mutans; [15]): 200 µg/mL (≈ 1110 µM)
MIC (S. mutans; [16]): 400 µg/mL (≈ 2220 µM)
MIC (S. mutans; [17]): 800 µg/mL (≈ 4440 µM)
MIC (P. intermedia; strain JMC7365): 400 µg/mL (≈ 2220 µM)
Antimicrobial activity (in words) [4]: no antimicrobial activity

O=c1oc2c(O)c(O)cc3c(=O)oc4c(O)c(O)cc1c4c23 [Ellagic acid]
Efficacy with 1.25% of indigo-plant extract [1, 18]: ++
Efficacy without indigo-plant extract ([1]; content 0.5%): ±

O=C(O)c1cc(O)c(O)c(O)c1 [Gallic acid, gallic acid]
MIC (A. actinomycetemcomitans [2]; [7]): 800 µg/mL (≈ 4700 µM)
MIC (A. actinomycetemcomitans [2]; [8]): 800 µg/mL (≈ 4700 µM)
MIC (A. actinomycetemcomitans [3]; [9]): 400 µg/mL (≈ 2350 µM)
MIC (A. actinomycetemcomitans [3]; [10]): 400 µg/mL (≈ 2350 µM)
MIC (A. actinomycetemcomitans [3]; [11]): 400 µg/mL (≈ 2350 µM)
MIC (S. sobrinus; strain 6715): 800 µg/mL (≈ 4700 µM)
MIC (C. rectus; strain JMC6301): 400 µg/mL (≈ 2350 µM)
MIC (S. mutans; [12]): 200 µg/mL (≈ 1180 µM)
MIC (S. mutans; [13]): 1600 µg/mL (≈ 9410 µM)
MIC (S. mutans; [14]): 200 µg/mL (≈ 1180 µM)
MIC (S. mutans; [15]): 1600 µg/mL (≈ 9410 µM)
MIC (S. mutans; [16]): 400 µg/mL (≈ 2350 µM)
MIC (S. mutans; [17]): 400 µg/mL (≈ 2350 µM)
MIC (P. intermedia; strain JMC7365): 400 µg/mL (≈ 2350 µM)

CCCCC/C=C\C/C=C\CCCCCCCC(=O)O [Linoleic acid]
Efficacy with 1.25% of indigo-plant extract [1, 18]: ++
Efficacy without indigo-plant extract ([1]; content 0.5%): ±

COc1ccc(C(=O)[O-])c(O)c1.[K+] [Potassium 4-methoxysalicylate]
Efficacy with 1.25% of indigo-plant extract [1, 19]: +++
Efficacy without indigo-plant extract ([1]; content 1.0%): +

O=C1O[C@H]([C@@H](O)CO)C([O-])=C1O.[Na+] [Sodium L-ascorbate]
Efficacy with 1.25% of indigo-plant extract [1, 6]: +++
Efficacy without indigo-plant extract ([1]; content 3.0%): +

COc1cc(CCC(=O)CC(=O)CCc2ccc(O)c(OC)c2)ccc1O [Tetrahydrocurcumin]
Efficacy with 1.25% of indigo-plant extract [1, 18]: ++
Efficacy without indigo-plant extract ([1]; content 0.5%): ±

NC[C@H]1CC[C@H](C(=O)O)CC1 [Tranexamic acid]
Efficacy with 1.25% of indigo-plant extract [1, 19]: ++
Efficacy without indigo-plant extract ([1]; content 1.0%): ±

O=c1cc(CO)occ1O [koji acid]
Efficacy with 1.25% of indigo-plant extract [1, 19]: +++
Efficacy without indigo-plant extract ([1]; content 1.0%): +
Efficacy (suppression of blackening of cells) ([5]; medium containing 2.5 mM, cultured 72 hours): +

O=C1c2ccccc2-n2c1nc1ccccc1c2=O [tryptanthrin]
MIC (A. actinomycetemcomitans [2]; read-out: Minimum Inhibitory Concentration (MIC), strain JMC2434): 25 µg/mL (≈ 101 µM)
MIC (A. actinomycetemcomitans [2]; read-out: Minimum Inhibitory Concentration (MIC), strain JMC8525): 6.25 µg/mL (≈ 25.2 µM)
MIC (A. actinomycetemcomitans [2]; read-out: Minimum Inhibitory Concentration (MIC), strain JMC8577): 25 µg/mL (≈ 101 µM)
MIC (A. actinomycetemcomitans [3]; read-out: Minimum Inhibitory Concentration (MIC), strain JMC12257): 12.5 µg/mL (≈ 50.4 µM)
MIC (A. actinomycetemcomitans [3]; read-out: Minimum Inhibitory Concentration (MIC), strain JMC33277): 12.5 µg/mL (≈ 50.4 µM)
MIC (S. sobrinus): 25 µg/mL (≈ 101 µM)
MIC (C. rectus): 25 µg/mL (≈ 101 µM)
MIC (S. mutans; read-out: Minimum Inhibitory Concentration (MIC), strain B-13D): 6.25 µg/mL (≈ 25.2 µM)
MIC (S. mutans; read-out: Minimum Inhibitory Concentration (MIC), strain Ingbritt): 25 µg/mL (≈ 101 µM)
MIC (S. mutans; read-out: Minimum Inhibitory Concentration (MIC), strain OMZ-61): 6.25 µg/mL (≈ 25.2 µM)
MIC (S. mutans; read-out: Minimum Inhibitory Concentration (MIC), strain OMZ-65): 12.5 µg/mL (≈ 50.4 µM)
MIC (S. mutans; read-out: Minimum Inhibitory Concentration (MIC), strain OMZ-175): 6.25 µg/mL (≈ 25.2 µM)
MIC (S. mutans; read-out: Minimum Inhibitory Concentration (MIC), strain OMZ-176): 12.5 µg/mL (≈ 50.4 µM)
MIC (P. intermedia): 6.25 µg/mL (≈ 25.2 µM)
Cytotoxicity (B16 melanoma cells): no cytotoxity to B16 melanoma cells was observed
Melanin production ([5]; 0.5 μg/ml or more used instead of the indigo-plant extract): melanin production was suppressed although the effect was lower than the one of indigo-plant extract

Source: US20090263339A1, “AGENT FOR EXTERNAL APPLICATION TO THE SKIN” (KABUSHIKI KAISHA HAYASHIBARA SEIBUTSU KAGAKU KENKY, priority 2005, published 2009)
